Measured values from patent publication US10576082B2, “ErbB2 regulates autophagic flux to modulate the proteostasis of APP-CTFs in alzheimer's disease” (Academia Sinica, priority 2016, dated 2020).

What was measured:
[1] = test system: HEK293 cells overexpressing ErbB1, ErbB2, CFP-tagged C99, and YFP-tagged NΔE; experiment: Lysosome inhibitor rescue after ErbB2 knockdown, Western blotting of HEK293 cells co-expressing ErbB1, ErbB2, CFP-C99, YFP-NΔE; assay type: cell-based; conditions: 10 μM chloroquine or 10 mM ammonium chloride, 37° C., 24 h after 48 h shRNA infection
Method: Clarified lysates containing equivalent amounts of proteins were analyzed by Western blotting. (B, C) HEK293 overexpressing CFP-LC3 cells were infected with lentivirus encoding shRNA targeting LacZ ErbB2, or ErbB2 plus ATG5 for 48 h. The autophagy induction was analyzed by fluorescence confocal microscopy. The number of CFP-LC3 puncta per cell was quantified. The levels of LC3-I, LC3-II, and GAPDH were analyzed by Western blotting. (D, E) HEK293 cells overexpressing ErbB1, ErbB2, CFP-tagged C99, and YFP-tagged NΔE were infected with lentivirus encoding shRNA targeting LacZ (Ctrl), ErbB1, or ErbB2 for 48 h. […] The levels of LC3-1, LC3-II, and p62 were analyzed by Western blotting and quantified by NIH Image J. Conditional media were harvested and processed for determination of secreted Aβ40 using a colourimetric Aβ40-specific ELISA kit. […] The quantitative data are shown as mean±SD from three independent experiments, and were analyzed by Student's t-tests. * p<0.05.
Preparation of cell extracts. […] Following the removal of cell debris by centrifugation, clarified lysates were processed for immunoprecipitation, Western blotting, or quantification of BCA protein content.
Western blotting analysis. Protein concentration was measured with the BCA Protein Assay Kit (Pierce). […]

[2] = test system: γ-secretase-mediated proteolysis of C99 (CG cells); experiment: Cell-based C99-specific γ-secretase assay (CG cells, Gal4 luciferase reporter); conditions: dose-dependent manner
Method: (§1) (A) Adherent CG and NG cells (20,000 cells/well) were treated with 1 μM of the indicated ErbB1/2-selective tyrosine kinase inhibitors in the presence of 1 μg/ml tetracycline at 37° C. for 24 h. The luminescence signals emitted by cells treated with vehicle alone (Ctrl, 0.1% DMSO) were referred to as 100% relative luminescence signals. The luminescence signals generated by γ-secretase-mediated proteolysis of C99 (CG) or NΔE (NG) were determined using the Steady-Glo luciferase assay reagent. (B) HEK293 overexpressing C99-YFP cells were treated with 1 μM of the indicated ErbB1/2 tyrosine kinase inhibitors at 37° C. for 24 h. Clarified lysates were analyzed by Western blotting and quantified by Image J. (C) HEK293 overexpressing ErbB1 ErbB2, CFP-tagged C99, and YFP-tagged NΔE cells were infected with gene-targeting shRNA-encoding lentivirus (shErbB1 or shErbB2) at 37° C. for 48 h. Clarified lysates containing equivalent amounts of proteins were examined by Western blotting and quantified by Image J. (D) CG and NG cells were infected with gene-targeting shRNA-encoding lentivirus at 37° C. for 48 h. Following induction with 1 μg/ml tetracycline for 24 h. […] Data are shown as the mean±SD from three independent experiments, and were analyzed by Student's t-tests. * p<0.05. […]

[3] = test system: γ-secretase-mediated proteolysis of NΔE (NG cells); experiment: Cell-based NΔE-specific γ-secretase assay (NG cells, Gal4 luciferase reporter); conditions: dose-dependent manner
Method: as §1

[4] = test system: zebrafish embryos expressing GFP-tagged C99; experiment: Phenotype of C99-expressing zebrafish embryos (curved trunk, Notch-dependent somite development); assay type: in vivo; conditions: zebrafish, in vivo
[5] = test system: γ-secretase cleavage of CFP-C99 and YFP-NΔE in HEK293 (CCNY) cells; experiment: Cell-based C99-NΔE dual γ-secretase assay (CCNY cells); conditions: CCNY cell line
Method: To generate a cellular γ-secretase assay that could be used to simultaneously identify cleavage of C99 and NΔE and the production of AICD and NICD, we […] HEK293 cells with pAS2-CCNY and selected transfectants with DMEM medium containing 10% FBS and 250 μg/ml zeocin. […] The CCNY clone was selected and optimized for the cell-based C99-NΔE dual γ-secretase assay.

SMILES	rescue of the reduction in C99 and AICD elicited by ErbB2 knockdown [1]	γ-secretase-dependent luciferase signals in CG cells [2]	γ-secretase-dependent luciferase signals in NG cells [3]	embryo phenotype (trunk, tail, pigmentation; developmental defects) [4]	cleavage of CFP-C99 and YFP-NΔE [5]
Cl.N [ammonium chloride]	rescued	–	–	–	–
CCN(CC)CCCC(C)Nc1ccnc2cc(Cl)ccc12 (stereo not drawn) [chloroquine]	rescued	–	–	–	–
C[C@H](NC(=O)Cc1cc(F)cc(F)c1)C(=O)N[C@H](C(=O)OC(C)(C)C)c1ccccc1 [DAPT, N—[N-(3,5-difluorophenacetyl-L-alanyl)]-S-phenylglycine t-butyl ester]	–	decreased γ-secretase-dependent luciferase signals	decreased γ-secretase-dependent luciferase signals	severe developmental defects	completely suppressed
